Test results published in ChEMBL document CHEMBL1154905, “The taiwaniaquinoids: a review” (J Nat Prod, 2010).
pEC50: −log10 of the molar value.

Legend:
human gammaherpesvirus 4 [1] = assay: Inhibition of TPA-induced EBV early antigen activation at 0.32 uM
human gammaherpesvirus 4 [2] = assay: Inhibition of TPA-induced EBV early antigen activation at 16 uM
human gammaherpesvirus 4 [3] = assay: Inhibition of TPA-induced EBV early antigen activation at 32 uM
human gammaherpesvirus 4 [4] = assay: Inhibition of TPA-induced EBV early antigen activation at 3.2 uM
KB = assay: Cytotoxicity against human KB cells; type: functional, cell-based
Aromatase [5] = biological target: T1, Aromatase (Homo sapiens, UniProt P11511); assay: Inhibition of human recombinant aromatase at 0.6 uM
T1 sequence (P11511 whole entry): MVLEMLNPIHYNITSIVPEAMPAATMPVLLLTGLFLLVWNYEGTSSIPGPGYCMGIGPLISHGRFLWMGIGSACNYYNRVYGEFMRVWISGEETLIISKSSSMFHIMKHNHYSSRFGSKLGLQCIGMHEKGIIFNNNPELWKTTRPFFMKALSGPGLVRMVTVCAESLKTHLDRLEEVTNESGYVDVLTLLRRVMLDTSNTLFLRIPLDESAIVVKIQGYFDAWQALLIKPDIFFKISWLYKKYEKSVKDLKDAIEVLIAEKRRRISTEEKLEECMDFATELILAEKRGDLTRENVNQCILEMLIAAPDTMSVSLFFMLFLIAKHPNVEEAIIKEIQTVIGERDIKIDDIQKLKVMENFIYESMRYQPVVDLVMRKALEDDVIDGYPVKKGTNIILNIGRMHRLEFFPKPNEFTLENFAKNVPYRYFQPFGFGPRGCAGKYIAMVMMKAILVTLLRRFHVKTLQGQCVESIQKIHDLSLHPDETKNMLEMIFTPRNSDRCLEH

Aromatase [6] = biological target: T1, Aromatase; assay: Inhibition of human recombinant aromatase at 10 uM
Aromatase [7] = biological target: T1, Aromatase; assay: Inhibition of human recombinant aromatase at 3 uM
Aromatase [8] = biological target: T1, Aromatase; assay: Inhibition of human recombinant aromatase at 0.3 uM
Aromatase [9] = biological target: T1, Aromatase; assay: Inhibition of human recombinant aromatase at 1 uM

CC(C)c1cc(C=O)c2c(c1O)[C@H](O)[C@H]1C(C)(C)CCC[C@]21C
inhibition (human gammaherpesvirus 4 [1]): 0%
inhibition (human gammaherpesvirus 4 [2]): 32%
inhibition (human gammaherpesvirus 4 [3]): 85.9%
inhibition (human gammaherpesvirus 4 [4]): 16.7%

CC1=C(/C=C/C(C)=C/C=C/C(C)=C/C=C/C=C(C)/C=C/C=C(C)/C=C/C2=C(C)CCCC2(C)C)C(C)(C)CCC1
inhibition (human gammaherpesvirus 4 [1]): 0%
inhibition (human gammaherpesvirus 4 [2]): 66%
inhibition (human gammaherpesvirus 4 [3]): 91%
inhibition (human gammaherpesvirus 4 [4]): 18%

CC[C@@H](C)CC[C@H]1[C@@H](C)CC[C@H]2C(C)(C)CCC[C@]12C
inhibition (human gammaherpesvirus 4 [1]): 4.5%
inhibition (human gammaherpesvirus 4 [2]): 51.9%
inhibition (human gammaherpesvirus 4 [3]): 92.3%
inhibition (human gammaherpesvirus 4 [4]): 22.2%

COc1cc([C@@H]2c3cc4c(cc3[C@@H](O[C@@H]3O[C@@H]5CO[C@@H](C)O[C@H]5[C@H](O)[C@H]3O)[C@H]3COC(=O)[C@H]23)OCO4)cc(OC)c1O [ETOPOSIDE]
pEC50 (KB): 5.96

C[C@]12CCC(=O)C(O)=C1CC[C@@H]1[C@@H]2CC[C@]2(C)C(=O)CC[C@@H]12 [FORMESTANE]
inhibition at 0.6 µM (Aromatase [5]): 63.7%

CC(=O)N1CCN(c2ccc(OCC3COC(Cn4ccnc4)(c4ccc(Cl)cc4Cl)O3)cc2)CC1 (configuration not stated) [KETOCONAZOLE]
inhibition at 10 µM (Aromatase [6]): 92.5%
inhibition at 3 µM (Aromatase [7]): 83.8%
inhibition at 0.3 µM (Aromatase [8]): 89.3%

N#Cc1ccc(C(c2ccc(C#N)cc2)n2cncn2)cc1 [LETROZOLE]
inhibition at 10 µM (Aromatase [6]): 87.9%
inhibition at 3 µM (Aromatase [7]): 87.5%
inhibition at 0.3 µM (Aromatase [8]): 81.7%

CC(=O)Oc1c(C(C)C)cc(C=O)c2c1[C@H](OC(C)=O)[C@H]1C(C)(C)CCC[C@]21C [STANDISHINAL DIACETATE]
inhibition (human gammaherpesvirus 4 [1]): 0%
inhibition (human gammaherpesvirus 4 [2]): 30.5%
inhibition (human gammaherpesvirus 4 [3]): 84.5%
inhibition at 1 µM (Aromatase [9]): 38.6%
inhibition (human gammaherpesvirus 4 [4]): 11.1%

CC(C)c1c(O)c2c(c3c1OCO3)[C@@]1(C)CCCC(C)(C)[C@@H]1[C@H]2C=O [TAIWANIAQUINOL A]
pEC50 (KB): 5.08

COc1c(O)c2c(c(O)c1C(C)C)C(=O)[C@@H]1C(C)(C)CCC[C@]21C [TAIWANIAQUINOL B]
pEC50 (KB): < 5.00

COc1c(O)c2c(c(O)c1C(C)C)[C@@H](C=O)[C@H]1C(C)(C)CCC[C@]21C [TAIWANIAQUINOL C]
pEC50 (KB): 5.09

COc1c(O)c2c(c(O)c1C(C)C)C(C=O)=C1C(C)(C)CCC[C@@]12C [TAIWANIAQUINOL D]
pEC50 (KB): 5.46

COc1c(O)c2c(c(O)c1C(C)C)C(=O)[C@H]1C(C)(C)CCC[C@]21C [TAIWANIAQUINOL E]
pEC50 (KB): < 5.00

COc1c(O)c2c(c(O)c1C(C)C)C(=O)[C@@H]1C(C)(C)C(=O)CC[C@]21C [TAIWANIAQUINOL F]
pEC50 (KB): < 5.00

CC(C)C1=C(O)C(=O)C2=C(C1=O)C(C=O)=C1C(C)(C)CCC[C@]21C [TAIWANIAQUINONE D]
pEC50 (KB): 5.14

COC1=C(C(C)C)C(=O)C2=C(C1=O)[C@@]1(C)CCCC(C)(C)[C@@H]1C2 [TAIWANIAQUINONE G]
pEC50 (KB): < 5.00

COC1=C(C(C)C)C(=O)C2=C(C1=O)[C@@]1(C)CCCC(C)(C)C1=C2 [TAIWANIAQUINONE H]
pEC50 (KB): < 5.00

COC1=C(C(C)C)C(=O)C2=C(C1=O)[C@@]1(C)CCCC(C)(C)[C@@H]1[C@H]2C=O [TAIWANIAQUINONE]
pEC50 (KB): 5.36

CC(C)C1=C(O)C(=O)C2=C(C1=O)[C@H](C=O)[C@H]1C(C)(C)CCC[C@]21C [TAIWANIQUINONE A]
pEC50 (KB): 5.16

COC(=O)[C@H]1C2=C(C(=O)C(O)=C(C(C)C)C2=O)[C@@]2(C)CCCC(C)(C)[C@H]12 [TAIWANIQUINONE E]
pEC50 (KB): < 5.00
